According to US8609836B2, “4-aryl-2-anilino-pyrimidines” (Janssen Pharmaceutica NV, priority 2008, dated 2013):

Experiments:
GSK3β (h) = GSK3β (h) (Homo sapiens, UniProt P49841); assay: GSK-3β human kinase inhibition, SPA; type: biochemical; conditions: read-out: GSK3b pIC50 (converted)
Method in brief: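 Scintillation proximity assay: GSK3β (1 μg/ml) with 1 μM biotinylated peptide, 1 μM ATP plus [γ-33P]ATP in Tris pH 7.4, MgCl2, DTT. 60 min at room temperature, stopped with EDTA and streptavidin PVT beads; phosphorylation read by Leadseeker imaging.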

HCT-116 = assay: Cellular proliferation assay (Alamar blue), HCT-116; type: cell-based; conditions: Homo sapiens, 10% FCS, 72 hours with compound, Alamar blue 4 h
Method in brief: (§1)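 24 h seeding without compound, 10% FCS, 37° C/5% CO2; 72 h compound; Alamar blue (resazurin 9 μg/ml, ferro-/ferricyanide 90 μM) 4 h HCT-116, 6 h U87-MG, 24 h A2780/MDA-MB-231; fluorescence 544/590 nm vs control cells.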

CDK4/CyclinD1 (h) = CDK4/CyclinD1 (h) (Homo sapiens, UniProt P11802); assay: CDK4/CyclinD1 human kinase inhibition, SPA with GST-pRb substrate; type: biochemical; conditions: read-out: CDK4 pIC50 (converted)
Procedure: The in vitro inhibition of a panel of kinases was assessed using either the scintillation proximity assay (SPA) as described by Cook, N. D. et al., Advances in Experimental Medicine and Biology (1991), 36; p. 525-528.
In the SPA technology the activity of the kinase of interest is measured using an appropriate biotinylated substrate that is incubated with the aforementioned kinase protein in the presence of (^33P) radiolabeled ATP. (^33P) Phosphorylation of the substrate is subsequently measured through binding of the phosphorylated substrate to streptavidine coated beads that are based on the scintillant poly(vinyl toluene) (PVT-Beads). The scintillation intensity is detected by imaging on Leadseeker.
All kinases are pre-diluted to a 10× working concentration prior to addition into the assay. The composition of the dilution buffer for each kinase is detailed below.
In a final reaction volume of 30 μl, CDK4/CyclinD1 (h) (2.5 μg/ml) is incubated with 50 mM Hepes pH 7.5, 8 mM NaF, 20 mM MgCl2, 1 mM DTT, 40 μg/ml of substrate GST-pRb, 2 nM [γ-^33P-ATP] (6.0 μCi/ml). After incubation of 60 minutes at room temperature, the reaction is stopped by addition of 40 μL of stop solution containing 8.7 mM EDTA, 0.17% Triton X-100, 25 mg/ml Glutathion SPA Beads (GE-healthcare). The plate is centrifuged and read for Scintillation topcount analyzer.

PLK1 T210D (h) = PLK1 T210D (h) (Homo sapiens, UniProt P53350, T210D); assay: PLK1 human kinase inhibition, SPA; type: biochemical; conditions: read-out: PLK1 pIC50 (converted)
Method in brief: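 Radiometric SPA with PLK1 T210D (0.125 ng/ml) in 50 mM Hepes pH 8.0, 2 mM MnCl2, 1 mM DTT, 2 μM biotinylated peptide, 0.1 μM ATP plus 2 nM [γ-33P]ATP. 40 min at room temperature, EDTA stop. Phosphorylated substrate captured on streptavidin PVT beads, scintillation imaged.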

H1299 = assay: Cellular proliferation assay (Alamar blue), H1299; type: cell-based; conditions: Homo sapiens, NCI-H1299; 10% FCS; 72 hours with compound; Alamar blue 4 h
Method in brief: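 This proliferation assay on NCI-H1299 cells used an initial 24-hour compound-free incubation after seeding, followed by 72 hours of compound treatment with 10% FCS serum at 37° C. and 5% (v/v) CO2. Viable cells were quantified by a 4 h Alamar blue incubation and fluorescent plate reading at 544 nm/590 nm, and effects were expressed relative to control cells.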

PLK2 (h) = PLK2 (h) (Homo sapiens, UniProt Q9NYY3); assay: PLK2 human kinase inhibition, SPA; type: biochemical; conditions: read-out: PLK2 pIC50 (converted)
Method in brief: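 SPA read on Leadseeker: PLK2 (30 μg/ml) with 2 μM biotinylated peptide, 0.1 μM ATP plus 2 nM [γ-33P]ATP in 50 mM Hepes pH 8.0, 2 mM MnCl2, 1 mM DTT. Reaction ran 20 min at room temperature, then EDTA stop and streptavidin PVT beads.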

PLK3 (h) = PLK3 (h) (Homo sapiens, UniProt Q9H4B4); assay: PLK3 human kinase inhibition, SPA; type: biochemical; conditions: read-out: PLK3 pIC50 (converted)
Method in brief: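 SPA: PLK3 (h) at 30 μg/ml with 2 μM biotinylated peptide, 0.1 μM ATP plus 2 nM [γ-33P]ATP in 50 mM Hepes pH 8.0, 2 mM MnCl2 and 1 mM DTT. Incubated 20 min at room temperature, then stopped with EDTA and streptavidin PVT beads. Scintillation imaged on Leadseeker.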

A2780 = assay: Cellular proliferation assay (Alamar blue), A2780; type: cell-based; conditions: Homo sapiens, 10% FCS, 72 hours with compound, Alamar blue 24 h, read-out: A2780 (cellular proliferation assay, Table 4) (converted)
Method in brief: as §1

U87-MG = assay: Cellular proliferation assay (Alamar blue), U87-MG; type: cell-based; conditions: Homo sapiens, U-87 MG; 10% FCS; 72 hours with compound; Alamar blue 6 h; read-out: U87-MG (cellular proliferation assay, Table 4) (converted)
Method in brief: as §1

Sequence of PLK2 (h) (Q9NYY3 whole entry): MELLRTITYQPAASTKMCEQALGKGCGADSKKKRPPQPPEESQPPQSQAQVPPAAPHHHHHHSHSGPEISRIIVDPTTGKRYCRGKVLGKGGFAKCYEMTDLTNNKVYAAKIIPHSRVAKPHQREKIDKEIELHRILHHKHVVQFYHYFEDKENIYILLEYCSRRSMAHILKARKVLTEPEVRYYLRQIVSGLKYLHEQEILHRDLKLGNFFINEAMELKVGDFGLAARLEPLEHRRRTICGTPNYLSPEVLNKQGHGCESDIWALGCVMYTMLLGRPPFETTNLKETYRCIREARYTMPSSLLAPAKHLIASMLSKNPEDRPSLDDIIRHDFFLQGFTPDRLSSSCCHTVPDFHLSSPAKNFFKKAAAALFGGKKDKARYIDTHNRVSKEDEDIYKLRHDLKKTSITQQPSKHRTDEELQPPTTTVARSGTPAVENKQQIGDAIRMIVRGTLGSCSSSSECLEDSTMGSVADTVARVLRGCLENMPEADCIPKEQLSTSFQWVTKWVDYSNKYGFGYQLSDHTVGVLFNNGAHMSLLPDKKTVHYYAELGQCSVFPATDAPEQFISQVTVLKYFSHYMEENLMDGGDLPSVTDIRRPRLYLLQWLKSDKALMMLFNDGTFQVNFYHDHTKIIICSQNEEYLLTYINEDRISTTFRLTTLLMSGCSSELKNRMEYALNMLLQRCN
Sequence of CDK4/CyclinD1 (h) (P11802 whole entry): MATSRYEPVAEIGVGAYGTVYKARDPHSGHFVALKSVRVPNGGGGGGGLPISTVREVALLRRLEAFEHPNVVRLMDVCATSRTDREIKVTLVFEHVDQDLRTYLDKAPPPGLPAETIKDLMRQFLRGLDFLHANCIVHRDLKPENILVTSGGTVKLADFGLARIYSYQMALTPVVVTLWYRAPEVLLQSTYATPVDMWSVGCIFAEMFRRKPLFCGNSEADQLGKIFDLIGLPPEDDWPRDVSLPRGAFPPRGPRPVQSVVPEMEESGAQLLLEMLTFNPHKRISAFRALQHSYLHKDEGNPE
Sequence of CDK4/CyclinD1 (h) (P24385 whole entry partner): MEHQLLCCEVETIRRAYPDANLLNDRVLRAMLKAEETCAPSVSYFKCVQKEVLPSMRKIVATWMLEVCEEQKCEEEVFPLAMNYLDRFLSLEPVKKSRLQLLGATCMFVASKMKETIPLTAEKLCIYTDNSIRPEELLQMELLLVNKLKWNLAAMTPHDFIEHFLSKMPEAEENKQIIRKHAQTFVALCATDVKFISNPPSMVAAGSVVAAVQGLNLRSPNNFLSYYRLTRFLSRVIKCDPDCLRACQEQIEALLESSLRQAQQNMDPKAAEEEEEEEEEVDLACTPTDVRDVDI
Sequence of PLK1 T210D (h) (P53350 whole entry T210D): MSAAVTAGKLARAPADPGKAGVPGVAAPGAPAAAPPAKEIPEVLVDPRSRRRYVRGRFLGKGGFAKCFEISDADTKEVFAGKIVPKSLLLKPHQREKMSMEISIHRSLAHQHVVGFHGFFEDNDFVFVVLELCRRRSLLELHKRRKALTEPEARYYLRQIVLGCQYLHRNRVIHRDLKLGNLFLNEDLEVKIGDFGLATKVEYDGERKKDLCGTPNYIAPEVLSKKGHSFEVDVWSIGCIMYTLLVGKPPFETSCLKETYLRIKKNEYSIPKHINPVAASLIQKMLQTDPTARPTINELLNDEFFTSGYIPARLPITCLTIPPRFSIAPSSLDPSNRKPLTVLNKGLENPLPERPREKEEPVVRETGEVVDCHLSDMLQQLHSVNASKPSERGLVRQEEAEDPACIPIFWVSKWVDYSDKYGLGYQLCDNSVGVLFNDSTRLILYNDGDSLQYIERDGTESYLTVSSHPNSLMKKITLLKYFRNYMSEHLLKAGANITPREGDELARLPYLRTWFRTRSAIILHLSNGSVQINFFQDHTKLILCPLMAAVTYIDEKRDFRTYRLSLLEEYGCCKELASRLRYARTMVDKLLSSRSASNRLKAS
Sequence of GSK3β (h) (P49841 whole entry): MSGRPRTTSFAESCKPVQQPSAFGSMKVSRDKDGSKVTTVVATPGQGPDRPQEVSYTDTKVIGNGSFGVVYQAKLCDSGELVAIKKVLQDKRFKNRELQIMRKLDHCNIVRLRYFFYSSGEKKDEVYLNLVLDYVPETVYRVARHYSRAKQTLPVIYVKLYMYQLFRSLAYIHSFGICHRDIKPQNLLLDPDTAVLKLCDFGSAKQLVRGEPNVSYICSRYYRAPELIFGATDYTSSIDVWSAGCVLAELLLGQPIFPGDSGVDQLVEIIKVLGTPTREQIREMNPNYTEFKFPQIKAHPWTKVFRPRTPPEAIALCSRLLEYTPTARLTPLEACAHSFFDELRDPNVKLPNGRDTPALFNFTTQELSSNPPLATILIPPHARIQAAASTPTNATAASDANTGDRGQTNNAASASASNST
Sequence of PLK3 (h) (Q9H4B4 whole entry): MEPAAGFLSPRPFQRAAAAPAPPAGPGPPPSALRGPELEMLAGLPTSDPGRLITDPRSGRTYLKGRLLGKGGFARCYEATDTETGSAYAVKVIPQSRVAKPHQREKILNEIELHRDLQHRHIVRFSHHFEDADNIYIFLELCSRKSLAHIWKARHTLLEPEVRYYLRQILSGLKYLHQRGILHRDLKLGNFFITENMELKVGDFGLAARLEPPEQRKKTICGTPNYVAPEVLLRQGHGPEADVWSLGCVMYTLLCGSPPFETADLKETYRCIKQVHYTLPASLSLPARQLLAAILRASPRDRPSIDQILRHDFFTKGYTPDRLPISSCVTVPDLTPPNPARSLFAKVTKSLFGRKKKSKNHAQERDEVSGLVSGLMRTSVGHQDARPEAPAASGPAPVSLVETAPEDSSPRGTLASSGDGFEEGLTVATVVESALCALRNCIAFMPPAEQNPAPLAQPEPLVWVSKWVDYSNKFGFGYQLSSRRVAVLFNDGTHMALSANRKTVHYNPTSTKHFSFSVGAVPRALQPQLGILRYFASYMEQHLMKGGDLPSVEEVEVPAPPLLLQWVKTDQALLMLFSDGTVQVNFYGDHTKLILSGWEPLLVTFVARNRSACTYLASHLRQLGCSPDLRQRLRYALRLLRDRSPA

Row | Compound | IC50 (GSK3β (h)) [µM] | IC50 (HCT-116) [µM] | IC50 (CDK4/CyclinD1 (h)) [µM] | IC50 (PLK1 T210D (h)) [µM] | IC50 (H1299) [µM] | IC50 (PLK2 (h)) [µM] | IC50 (PLK3 (h)) [µM] | IC50 (A2780) [µM] | IC50 (U87-MG) [µM]
1 | COc1ccc2cc1CN[C@@H](CO)C(=O)N(C)CCCN(C)c1ccc(cn1)-c1ccnc(n1)N2 [Compound 11] | 2.09 | > 10 | > 10 | > 10 | > 10 | > 10 | > 10 | > 10 | > 10
2 | O=C1NCc2cc(ccc2N2CCOCC2)Nc2nccc(n2)-c2cccc(c2)CN2CCC[C@@H]12 [Compound 15] | 0.372 | 8.32 | 4.47 | > 10 | > 10 | > 10 | > 10 | 7.08 | 7.94
3 | COc1cc2cc(c1OC)CN1CCC[C@H]1C(=O)NCc1cccc(c1)-c1ccnc(n1)N2 [Compound 23] | 0.195 | > 10 | > 10 | > 10 | > 10 | > 10 | > 10 | > 10 | > 10
4 | CN1CCN(C(=O)c2cc3cc(c2)Nc2nccc(n2)-c2cccc(c2)CNC(=O)[C@@H]2CCCN2C3)CC1 [Compound 34] | 0.525 | 5.89 | 8.71 | > 10 | 6.17 | > 10 | > 10 | > 10 | 8.71
5 | CN(C)C(=O)c1cc2cc(c1)Nc1nccc(n1)-c1cccc(c1)CNC(=O)[C@@H]1CCCN1C2 [Compound 35] | 0.204 | 1.32 | 1.35 | > 10 | > 10 | > 10 | > 10 | 3.39 | 1.45
6 | O=C1NCc2cc(ccc2N2CCOCC2)Nc2nccc(n2)-c2cccc(c2)CCN2CCC[C@@H]12 [Compound 43] | 0.186 | 1.78 | 0.427 | > 10 | > 10 | > 10 | > 10 | 2.51 | > 10
7 | O=C1NCc2cccc(c2)-c2ccnc(n2)Nc2cccc(c2)CN2C[C@@H](O)C[C@@H]12 [Compound 45] | 0.0724 | 0.295 | 0.933 | > 10 | 1.17 | > 10 | > 10 | 1.66 | 0.912
8 | CN1CCC(NC(=O)c2ccc3cc2CN2CCC[C@H]2C(=O)NCc2cccc(c2)-c2ccnc(n2)N3)CC1 [Compound 47] | 0.398 | 2.45 | 1.2 | > 10 | 9.55 | > 10 | > 1 | 3.72 | 7.08

Next, values leading:

Row | IC50 (GSK3β (h)) [µM] | IC50 (HCT-116) [µM] | IC50 (CDK4/CyclinD1 (h)) [µM] | IC50 (PLK1 T210D (h)) [µM] | IC50 (H1299) [µM] | IC50 (PLK2 (h)) [µM] | IC50 (PLK3 (h)) [µM] | IC50 (A2780) [µM] | IC50 (U87-MG) [µM] | Compound
9 | ~10.5 | 3.8 | 1.58 | > 10 | 1.58 | > 10 | > 10 | 1.74 | 0.955 | O=C1NCc2ccc(cc2)-c2ccnc(n2)Nc2ccc(N3CCOCC3)c(c2)CN2CCC1CC2 [Compound 12]
10 | 0.851 | > 10 | > 10 | > 10 | > 10 | > 10 | > 10 | > 10 | > 10 | COc1cc2cc(c1OC)CN1CCC[C@H]1C(=O)N(C)CCN(C)c1cc(ccn1)-c1ccnc(n1)N2 [Compound 17]
11 | 0.389 | 6.76 | > 10 | > 10 | > 10 | > 10 | > 10 | 9.33 | 6.76 | O=C1NCc2cccc(c2)-c2ccnc(n2)Nc2ccc(N3CCOCC3)c(c2)CN[C@H]1Cc1ccccc1 [Compound 18]
12 | 6.03 | > 10 | > 10 | > 10 | > 10 | > 10 | > 10 | > 10 | > 10 | O=C1CN2CCN(CC2)Cc2cc(ccc2N2CCOCC2)Nc2nccc(n2)-c2cccc(c2)CN1 [Compound 20]
13 | 0.0813 | 3.72 | > 10 | > 10 | 3.31 | > 10 | > 10 | 4.47 | > 10 | CN1CCN(C(=O)c2ccc3cc2CN2CCC[C@H]2C(=O)NCc2cccc(c2)-c2ccnc(n2)N3)CC1 [Compound 25]
14 | 0.0676 | 2.19 | > 10 | > 10 | 2.45 | > 10 | > 10 | 4.17 | > 10 | O=C1NCc2cccc(c2)-c2ccnc(n2)Nc2ccc(C(=O)N3CCOCC3)c(c2)CN2CCC[C@@H]12 [Compound 26]
15 | 0.141 | 0.891 | 1.78 | > 10 | 2.95 | > 10 | > 10 | 0.661 | 5.37 | O=C1NCc2cccc(c2)-c2ccnc(n2)Nc2ccc(N3CCOCC3)c(c2)CN2C[C@@H](O)C[C@@H]12 [Compound 27]
16 | 0.186 | 5.13 | 3.31 | > 10 | > 10 | > 10 | > 10 | > 10 | > 10 | O=C1NCc2cccc(c2)-c2ccnc(n2)Nc2cc(cc(C(=O)N3CCOCC3)c2)CN2CCC[C@@H]12 [Compound 32]
17 | 0.676 | > 10 | > 10 | > 10 | > 10 | > 10 | > 10 | > 10 | > 10 | O=C(NC1CCOCC1)c1cc2cc(c1)Nc1nccc(n1)-c1cccc(c1)CNC(=O)[C@@H]1CCCN1C2 [Compound 37]
18 | 0.186 | 1.23 | 3.47 | > 10 | > 10 | > 10 | > 3.02 | 2.69 | 1 | CN1CCC(NC(=O)c2cc3cc(c2)Nc2nccc(n2)-c2cccc(c2)CNC(=O)[C@@H]2CCCN2C3)CC1 [Compound 38]
19 | 0.363 | 1.23 | 1.12 | > 10 | > 10 | > 10 | > 10 | 2.09 | 1.07 | CN(C)CCNC(=O)c1cc2cc(c1)Nc1nccc(n1)-c1cccc(c1)CNC(=O)[C@@H]1CCCN1C2 [Compound 39]
20 | 0.166 | 1.82 | 3.63 | > 10 | > 10 | > 10 | > 10 | 6.03 | 1.91 | COCCNC(=O)c1cc2cc(c1)Nc1nccc(n1)-c1cccc(c1)CNC(=O)[C@@H]1CCCN1C2 [Compound 44]
